This note sets out measurements from US11702427B2 (priority 2018, dated 2023).

In one assay the test system is HBsAg. The experiment in a line: HBsAg assay: inhibition of HBsAg in HepG2.2.15 cells (CLIA immunoassay of supernatant). It is filed as cell-based, hepatitis B virus (HBV). The conditions noted are these: Hepatitis B virus, HepG2.2.15, 144 h, read-out: sAg EC50, HepG2.2.15 cells; supernatant collected at day 6 after exposure; HBsAg chemiluminescence immunoassay. As for the experimental part:
Inhibition of HBsAg was determined in HepG2.2.15 cells. Cells were maintained in culture medium containing 10% fetal calf serum, […], Glutamine, penicillin/streptomycin. Cells were seeded in 96-well collagen-coated plate at a density of 30,000 cells/well. Serially diluted compounds were added to cells next day at the final DMSO concentration of 0.5%. Cells were incubated with compounds for 2-3 days, after which medium was removed. Fresh medium containing compounds was added to cells for additional 3-4 days. At day 6 after exposure of compounds, supernatant was collected, the HBsAg immunoassay (microplate-based chemiluminescence immunoassay kits, CLIA, Autobio Diagnosics Co., Zhengzhou, China, Catalog #CL0310-2) was used to determine the level of HBsAg according to manufactory instruction. Dose-response curves were generated and the EC50 value (effective concentrations that achieved 50% inhibitory effect) were determined using XLfit software. In addition, cells can be seeded at a density of 5,000 cells/well for determination of cell viability in the presence and absence of compounds by using CellTiter-Glo reagent (Promega). Tables 1-3 show EC50 values obtained by the HBsAg assay for selected compounds.
The EC50 is the concentration at which the effect is half-maximal. In the case of `COCCCOc1cc2c(cc1OC)-c1[nH]c(=O)c(C(=O)O)cc1C1(CCCCC1)C2` [Example 73, 9-Methoxy-8-(3-methoxypropoxy)-2-oxo-2,6-dihydro-1H-spiro[benzo[h]quinoline-5,1′-cyclohexane]-3-carboxylic acid], the EC50 worked out at 110 nM.

Consider `COCCCOc1cc2c(cc1OC)-c1[nH]c(=O)c(C(=O)O)c(OC)c1C(C(C)C)C2` (stereo not drawn) [Example 87, 5-Isopropyl-4,9-dimethoxy-8-(3-methoxypropoxy)-2-oxo-1,2,5,6-tetrahydrobenzo[h]quinoline-3-carboxylicacid], for which the EC50 was determined as 85 nM. For the molecule `CCOc1nc2c(cc1OCCCOC)CC(C(C)C)c1c-2[nH]c(=O)c(C(=O)O)c1O` (stereo not drawn) [Example 39, 9-Ethoxy-4-hydroxy-5-isopropyl-8-(3-methoxypropoxy)-2-oxo-1,2,5,6-tetrahydro-1,10-phenanthroline-3-carboxylicacid], the EC50 came to 2 nM. In the case of `CNC(=O)c1c(O)c2c([nH]c1=O)-c1nc(OC)c(OCCCOC)cc1CC2C(C)(C)C` (stereo not drawn) [Example 63, 5-(tert-Butyl)-4-hydroxy-9-methoxy-8-(3-methoxypropoxy)-N-methyl-2-oxo-1,2,5,6-tetrahydro-1,10-phenanthroline-3-carboxamide], the EC50 worked out at 18 nM. Still for that read-out and setting: the same measure for `COCCCOc1cc2c(nc1OC)-c1[nH]c(=O)c(C(=O)O)cc1C(C(C)C)C2` (stereo not drawn) [Example 43, 5-Isopropyl-9-methoxy-8-(3-methoxypropoxy)-2-oxo-1,2,5,6-tetrahydro-1,10-phenanthroline-3-carboxylic acid]: 3 nM; for `COCCCOc1cc2c(cc1OC)-c1[nH]c(=O)cc(O)c1C(C(C)C)C2` (stereo not drawn) [Example 22, 4-Hydroxy-5-isopropyl-9-methoxy-8-(3-methoxypropoxy)-5,6-dihydrobenzo[h]quinolin-2(1H)-one]: 340 nM; for `COCCCOc1cc2c(nc1OC)-c1nc(Cl)c(C(=O)O)c(Cl)c1C(C(C)(C)C)C2` (stereo not drawn) [Example 68, 5-(tert-Butyl)-2,4-dichloro-9-methoxy-8-(3-methoxypropoxy)-5,6-dihydro-1,10-phenanthroline-3-carboxylicacid]: 10000 nM. Same read-out and setting: with `COCCCOc1cc2c(nc1OC)-c1[nH]c(=O)c(C(N)=O)c(O)c1C(C(C)(C)C)C2` (stereo not drawn) [Example 59, 5-(tert-Butyl)-4-hydroxy-9-methoxy-8-(3-methoxypropoxy)-2-oxo-1,2,5,6-tetrahydro-1,10-phenanthroline-3-carboxamide] the figure was 3 nM; with `COCCCOc1cc2c(nc1OC)-c1[nH]c(=O)c(C(=O)O)c(O)c1C(C(C)C)C2` (stereo not drawn) [Example 33, 4-Hydroxy-5-isopropyl-9-methoxy-8-(3-methoxypropoxy)-2-oxo-1,2,5,6-tetrahydro-1,10-phenanthroline-3-carboxylic acid], 4 nM.

The assay is the same for the next values; noted with them: read-out: sAg EC50; HepG2.2.15 cells; supernatant collected at day 6 after exposure; HBsAg chemiluminescence immunoassay.
Turning to `COCCCOc1cc2c(nc1Cl)-c1[nH]c(=O)c(C(=O)O)c(O)c1C(C(C)C)CO2` (single isomer, unassigned) [Example 75, 2-Chloro-8-hydroxy-7-isopropyl-3-(3-methoxypropoxy)-10-oxo-6,7,10,11-tetrahydrooxepino[3,2-b:4,5-b′]dipyridine-9-carboxylic acid], the EC50 was determined as 22 nM. On the same count and under the same terms, with `COCCCOc1cc2c(nc1OC)-c1[nH]c(=O)c(C(=O)O)c(O)c1C(C(C)(C)C)C2` (single isomer, unassigned) [Example 38, 5-(tert-Butyl)-4-hydroxy-9-methoxy-8-(3-methoxypropoxy)-2-oxo-1,2,5,6-tetrahydro-1,10-phenanthroline-3-carboxylic acid] the figure was 35 nM. Still for that read-out and setting: the same measure for `COCCCOc1cc2c(nc1C1CC1)-c1[nH]c(=O)c(C(=O)O)c(O)c1C(C(C)(C)C)CO2` (single isomer, unassigned) [Example 82, 7-(tert-Butyl)-2-cyclopropyl-8-hydroxy-3-(3-methoxypropoxy)-10-oxo-6,7,10,11-tetrahydrooxepino[3,2-b:4,5-b′]dipyridine-9-carboxylic acid]: 30000 nM.

With `COCCCOc1cc2c(nc1OC)-c1[nH]c(=O)c(C(=O)O)c(O)c1C(C(C)(C)C)CO2` (single isomer, unassigned) [Example 86, 7-(tert-Butyl)-8-hydroxy-2-methoxy-3-(3-methoxypropoxy)-10-oxo-6,7,10,11-tetrahydrooxepino[3,2-b:4,5-b′]dipyridine-9-carboxylic acid], the EC50 amounted to 30000 nM. Still for that read-out and setting: with `CCc1nc2c(cc1OCCCOC)OCC(C(C)(C)C)c1c-2[nH]c(=O)c(C(=O)O)c1O` (single isomer, unassigned) [Example 81, 7-(tert-Butyl)-2-ethyl-8-hydroxy-3-(3-methoxypropoxy)-10-oxo-6,7,10,11-tetrahydrooxepino[3,2-b:4,5-b′]dipyridine-9-carboxylic acid] the figure was 4 nM; with `COCCCOc1cc2c(nc1Cl)-c1[nH]c(=O)c(C(=O)O)c(O)c1C(C(C)(C)C)CO2` (single isomer, unassigned) [Example 77, 7-(tert-Butyl)-2-chloro-8-hydroxy-3-(3-methoxypropoxy)-10-oxo-6,7,10,11-tetrahydrooxepino[3,2-b:4,5-b′]dipyridine-9-carboxylic acid], 6 nM; with `COCCCOc1cc2c(nc1OC)-c1[nH]c(=O)c(C(N)=O)c(O)c1C(C(C)(C)C)C2` (single isomer, unassigned) [Example 61, 5-(tert-Butyl)-4-hydroxy-9-methoxy-8-(3-methoxypropoxy)-2-oxo-1,2,5,6-tetrahydro-1,10-phenanthroline-3-carboxamide], 300 nM.

As for `COCCCOc1cc2c(nc1Cl)-c1[nH]c(=O)c(C(=O)O)c(O)c1C(C(C)C)CO2` (single isomer, unassigned) [Example 76, 2-Chloro-8-hydroxy-7-isopropyl-3-(3-methoxypropoxy)-10-oxo-6,7,10,11-tetrahydrooxepino[3,2-b:4,5-b′]dipyridine-9-carboxylic acid], the EC50 worked out at 560 nM.

For `COCCCOc1cc2c(cc1Cl)-c1[nH]c(=O)c(C(=O)O)cc1C(C)(C(C)C)C2` (single isomer, unassigned) [Example 10, 9-Chloro-5-isopropyl-8-(3-methoxypropoxy)-5-methyl-2-oxo-1,6-dihydrobenzo[h]quinoline-3-carboxylic acid], the EC50 was 25 nM. With `COCCCOc1cc2c(cc1OC)-c1[nH]c(=O)c(C(=O)O)cc1C(C(C)C)C2` (single isomer, unassigned) [Example 3, 5-Isopropyl-9-methoxy-8-(3-methoxypropoxy)-2-oxo-1,2,5,6-tetrahydrobenzo[h]quinoline-3-carboxylic acid], the EC50 was 2000 nM.

Turning to `COCCCOc1cc2c(nc1OC)-c1[nH]c(=O)c(C(=O)O)cc1C(C(C)(C)C)C2` (single isomer, unassigned) [Example 48, 5-(tert-Butyl)-9-methoxy-8-(3-methoxypropoxy)-2-oxo-1,2,5,6-tetrahydro-1,10-phenanthroline-3-carboxylic acid], the EC50 is 42 nM. The same measure, in the same setting: with `COCCCOc1cc2c(nc1OC)-c1[nH]c(=O)c(C(=O)O)c(O)c1C(C(C)C)C2` (single isomer, unassigned) [Example 35, 4-Hydroxy-5-isopropyl-9-methoxy-8-(3-methoxypropoxy)-2-oxo-1,2,5,6-tetrahydro-1,10-phenanthroline-3-carboxylic acid] the figure was 150 nM.
